What is called IC50 is the point on the concentration scale where inhibition reaches its midpoint. A high value points to lower potency.

From ChEMBL document CHEMBL1781915, “Potential virtual lead identification in the discovery of renin inhibitors: application of ligand and structure-based pharmacophore modeling approaches” (Eur J Med Chem, 2011) come the findings set out here.

SMILES strings stand for the structures.

The assay has as its target T1, Renin (Homo sapiens, UniProt P00797).
T1 sequence (P00797 whole entry): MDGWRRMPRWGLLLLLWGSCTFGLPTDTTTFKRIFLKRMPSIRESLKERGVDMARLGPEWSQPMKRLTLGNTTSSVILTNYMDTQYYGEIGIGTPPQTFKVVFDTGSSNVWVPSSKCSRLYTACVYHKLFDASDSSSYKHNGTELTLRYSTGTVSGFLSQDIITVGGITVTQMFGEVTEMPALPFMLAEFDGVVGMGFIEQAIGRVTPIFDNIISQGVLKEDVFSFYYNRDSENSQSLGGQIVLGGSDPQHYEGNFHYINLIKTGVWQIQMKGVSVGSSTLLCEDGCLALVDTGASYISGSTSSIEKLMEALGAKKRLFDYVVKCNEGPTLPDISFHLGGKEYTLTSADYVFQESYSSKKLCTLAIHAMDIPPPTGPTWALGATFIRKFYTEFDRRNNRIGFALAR
As for `CCCCNC(=O)C(C)CC(O)C(N)CC(CNC(=O)c1cccc(OCCCOC)c1)C(C)C` (stereo unspecified), the IC50 came to 0.9 nM.
`CCCCNC(=O)C(CC(=O)C(CC1CCCCC1)NC(=O)C(Cc1cnc[nH]1)NC(=O)C(Cc1ccccc1)CS(=O)(=O)C(C)(C)C)C(C)C` (stereo unspecified) had an IC50 of 0.7 nM.
For `CC(C)(C)S(=O)(=O)CC(Cc1ccccc1)C(=O)NC(Cc1cnc[nH]1)C(=O)NC(CC1CCCCC1)C(O)C(O)C1CC1` (stereo unspecified), the IC50 was 1 nM.
The molecule `CCCCNC(=O)C(C)CC(O)C(N)CC(C)(C)CC(=O)N1CC(C(=O)OC)Cc2ccccc21` (stereo unspecified) registered an IC50 of 0.8 nM.
Next, `Cc1cc(Cl)c(OCCOc2ccc(C3=C(C(=O)N(Cc4cccc(C)c4C)C4CC4)C4CNCC(C3)N4)cc2)c(Cl)c1` (stereo unspecified): 0.16 nM.
With `COc1ccccc1COCCCOc1ccc(N2C(=O)CNCC2COC2=CC3C(=CC=CN3CCCO)C=C2)cc1` (stereo unspecified), it took 37 nM to reach half-maximal inhibition (IC50).
